In patent US20090123979A1, “Methods of reducing the inhibitory effect of a tannin on the enzymatic hydrolysis of cellulosic material” (Novozymes, Inc., priority 2007, published 2009):
Where two headings read alike, the source gives them in different places.

Legend:
[1] = target: T1, Trichoderma reesei CEL7B endoglucanase I (Trichoderma reesei, UniProt P07981); assay: CMC hydrolysis by CEL7B endoglucanase I with tannic acid; assay type: biochemical; settings: 1 mM tannic acid, 50° C., 4 hours
T1 construct: made in house; host or cells: Aspergillus oryzae JaL250
Description: The effect of tannic acid on Trichoderma reesei CEL7B endoglucanase I and Trichoderma reesei CEL5A endoglucanase II was also evaluated using carboxymethylcellulose (CMC) as substrate. The hydrolysis reactions were conducted in duplicate using the “mini-plate-scale” hydrolysis procedure described in Example 33, except that 1 mM tannic acid and 10 to 20 g of carboxymethylcellulose (CMC) and 1 to 20 mg of enzyme per liter 50 mM sodium acetate pH 5.0 were used at 50° C. for 4 hours. Soluble reducing sugars were analyzed by a p-hydroxybenzoic acid hydrazide (PHBAH) assay according to the method of Lever, 1972, Anal. Biochem. 47: 273-279, instead of by HPLC as described in Examples 30 and 33. Reactions without the addition of the enzymes served as controls to correct background absorption. Spectrophotometric measurements were performed using a SPECTRAMAX™ 340PC reader (Molecular Devices Corp., Sunnyvale, Calif., USA) with COSTAR® 96-well microplates (Cole-Parmer Instrument Co, Vernon Hills, Ill., USA).

[2] = target: T2, Cellulolytic Enzyme Composition #2; assay: PCS hydrolysis by Cellulolytic Enzyme Composition #2 with added compounds; assay type: biochemical, Trichoderma reesei; settings: for Ki: PCS hydrolysis, Cellulolytic Enzyme Composition #2
T2 construct: Dixon plot linear regression intercept (1/Rate); other: PCS; rate from hydrolysis difference (%) at 0 and 5 hours; rate from hydrolysis difference (%); Ki (x-intercept of Dixon plot); other: PCS hydrolysis, Cellulolytic Enzyme Composition #2; OPC flavonol-equivalent; Ki expressed as galloyl constituents; oth; fused on or other part: In one component the Humicola insolens endoglucanase V (CEL45A) core is fused in front of the A. oryzae beta-glucosidase
Description: Corn stover was pretreated at the U.S. Department of Energy National Renewable Energy Laboratory (NREL), […], Colo., USA, using dilute sulfuric acid. The following conditions were used for the pretreatment: 1.4 wt % sulfuric acid at 195° C. for 4.5 minutes. According to limit digestion with excess cellulase enzymes, the water-insoluble solids in the pretreated corn stover (PCS) contained 59.5% cellulose. Prior to use, the PCS was washed with a large volume of deionized water until soluble acid and sugars were removed. The dry weight of the water-washed PCS was 19.16%.
The effect of a mixture of tannic acid, ellagic acid, epicatechin, and six lignin constituent compounds (4-hydroxyl-2-methylbenzoic acid, vanillin, coniferyl alcohol, coniferyl aldehyde, ferulic acid, and syringaldehyde) was determined on the hydrolysis of PCS by Cellulolytic Enzyme Composition #1 or Cellulolytic Enzyme Composition #2. […] Cellulolytic Enzyme Composition #1 or Cellulolytic Enzyme Composition #2 was added at 0.25 g per liter. Reactions without the addition of the compounds served as controls. The capped tubes were incubated at 50° C. in an INNOVA® 4080 incubator shaker (New Brunswick Scientific Co., Inc., Edison, N.J., USA) at 150 rpm.
Aliquots of the suspensions, sampled over time, were filtered by centrifugation using a 0.45 μm MULTISCREEN® HV membrane (Millipore, Billerica, Mass., USA) at 2000 rpm for 15 minutes using a SORVALL® RT7 centrifuge (Thermo Fisher Scientific, Waltham, Mass., USA). When not used immediately, the filtered aliquots were frozen at −20° C. Sugar concentrations of the samples diluted in 0.005 M H2SO4 were measured after elution by 0.005 M H2SO4 at a flow rate of 0.4 ml/minute from a 4.6×250 mm AMINEX® HPX-87H column (Bio-Rad, Hercules, Calif., USA) at 65° C. with quantitation by integration of glucose and cellobiose using refractive index detection (CHEMSTATION®, AGILENT® 1100 HPLC, Agilent Technologies, Santa Clara, Calif., USA) calibrated with standards of glucose and cellobiose. The resultant equivalents were used to calculate the percentage of cellulose conversion for each reaction.
The degree of cellulose conversion to glucose plus cellobiose sugars (conversion, %) was calculated using the following equation:
Conversion(%)=(glucose+cellobiose×1.053)(mg/ml)×100×162/cellulose(mg/ml)×180)=(glucose+cellobiose×1.053)(mg/ml)×100/(cellulose(mg/ml)×1.111)
In this equation the factor 1.111 reflects the weight gain in converting cellulose to glucose, and the factor 1.053 reflects the weight gain in converting cellobiose to glucose. Cellulose in PCS was determined by a limit digest of PCS to release glucose and cellobiose.
Example 30 was repeated except that each compound was tested separately. […] Reactions without the addition of each compound served as controls.
The effect of OPC or flavonol on the hydrolysis of PCS by Cellulolytic Enzyme Composition #1 or Cellulolytic Enzyme Composition #2 was determined according to the procedure described in Example 30. OPC and flavonol were present at a concentration of 1 mM. Reactions without the addition of the compounds served as controls.
The effective inhibitory concentration range for tannic acid and OPC was also determined by the “mini-scale” hydrolysis described in Example 30 with Cellulolytic Enzyme Composition #2. The concentration of tannic acid ranged from 0.1 mM to 1 mM, while the concentration of OPC ranged from 0.1 mM to 10 mM. Reactions without the addition of the tannic compounds served as controls.
However, prior to the addition of Cellulolytic Enzyme Composition #2, the mixture of PCS or OPC and tannic acid was treated with Aspergillus oryzae tannase (Novozymes A/S, Bagsværd, Denmark) at 10% of the final protein level for 30 minutes. Reactions without addition of the tannic acid, OPC, or tannase served as controls.

[3] = tested on: Cellulolytic Enzyme Composition #1; assay: AVICEL hydrolysis by Cellulolytic Enzyme Composition #1 with added compounds; assay type: biochemical, Trichoderma reesei; settings: AVICEL pre-incubated with 1 mM tannic acid 1 hour at 50° C., then washed
Text: Initial hydrolysis rates were obtained from the first two hydrolysis time points (i.e., soluble sugar measurements) (with <20% hydrolysis extent in general, rate=(hydrolysis difference)/(time difference)). Double-reciprocal plots (1/(initial rate) vs 1/[cellulose] as function of tannic acid concentration) indicated a “mixed” type inhibition, but their complexity prevented extraction of simple inhibitor constants. Initial rate vs tannic acid concentration yielded an I50 (inhibitor concentration leading to 50% loss of hydrolysis rate) of 0.2±0.1 or 0.27±0.07 mM on PASC or AVICEL® hydrolysis, respectively
To examine where tannic acid exerted its inhibition, a series of hydrolysis reactions of AVICEL® by Cellulolytic Enzyme Composition #1 was performed in which AVICEL® and Cellulolytic Enzyme Composition #1 were used fresh or after pre-incubation with tannic acid. […] (with detectable precipitation seen), the pre-incubated Cellulolytic Enzyme Composition #1 was gel-filtered using BioSpin 6 desalting columns (Bio-Rad, Hercules, Calif., USA). […] Hydrolysis of untreated or buffer-only pre-incubated AVICEL® and Cellulolytic Enzyme Composition #1, with or without inhibitors, served as controls.

[4] = PCS, rate from hydrolysis difference (%) at 0 and 5 hours

T1 sequence (P07981 23-459): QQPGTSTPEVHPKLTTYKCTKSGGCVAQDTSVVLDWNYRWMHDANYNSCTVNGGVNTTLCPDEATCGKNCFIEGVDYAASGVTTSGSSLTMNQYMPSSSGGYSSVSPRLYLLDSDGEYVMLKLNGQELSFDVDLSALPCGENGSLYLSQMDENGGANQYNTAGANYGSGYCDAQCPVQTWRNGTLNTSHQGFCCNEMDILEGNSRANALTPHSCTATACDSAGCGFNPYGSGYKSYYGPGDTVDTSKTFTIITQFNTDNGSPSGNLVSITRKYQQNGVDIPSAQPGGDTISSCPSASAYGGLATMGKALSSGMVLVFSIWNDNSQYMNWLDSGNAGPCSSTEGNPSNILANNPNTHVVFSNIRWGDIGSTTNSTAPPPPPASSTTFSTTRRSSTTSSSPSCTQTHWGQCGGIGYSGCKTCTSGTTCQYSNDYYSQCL

## O=C(OC[C@H]1O[C@@H](OC(=O)c2cc(O)c(O)c(OC(=O)c3cc(O)c(O)c(O)c3)c2)[C@H](OC(=O)c2cc(O)c(O)c(OC(=O)c3cc(O)c(O)c(O)c3)c2)[C@@H](OC(=O)c2cc(O)c(O)c(OC(=O)c3cc(O)c(O)c(O)c3)c2)[C@@H]1OC(=O)c1cc(O)c(O)c(OC(=O)c2cc(O)c(O)c(O)c2)c1)c1cc(O)c(O)c(OC(=O)c2cc(O)c(O)c(O)c2)c1 [tannic acid, Tannic acid]
[1]
  effect on CMC hydrolysis by CEL7B endoglucanase I: significantly inhibited
[2]; OPC flavonol-equivalent, read-out: Ki (x-intercept of Dixon plot)
  Ki: ~180 µM
[2]; corresponding galloyl constituents, read-out: Ki expressed as galloyl constituents
  Ki: 1800 µM
[2]; [4]
  Dixon plot linear regression intercept (1/Rate): 0.018±0.005
  Dixon plot linear regression slope (1/Rate vs inhibitor concentration): 0.098±0.009
[2]; tannic acid 0.1 mM to 1 mM, OPC 0.1 mM to 10 mM, 43 g PCS and 0.25 g enzyme per liter
  concentration dependence of inhibition of PCS hydrolysis: increasingly inhibitory
[3]
  effect of pre-incubating AVICEL with inhibitor on hydrolysis: did not affect the hydrolysis
